Measured values as given in patent US10954240B2, “Compounds inhibiting leucine-rich repeat kinase enzyme activity” (Merck Sharp & Dohme Corp., priority 2014, dated 2021).

Experiments:
[1] = Rat pharmacokinetics, oral AUC; format: in vivo; settings: single oral dose 10 mpk, plasma; for AUC: 10 mg/kg
Excerpt: Representative Example of a Pharmacokinetic Measurement
The pharmacokinetics of a compound of the invention (amorphous free form) can be studied following single intravenous and/or oral administration to mouse, rat, dog and/or monkey. In the present study, the pharmacokinetics of selected compounds of the invention (amorphous free form) were studied following single intravenous and/or oral administration to rat. The IV solution formulations contained 30% captisol/70% water or 1/1 DMSO/PEG-400. The PO solution formulations contained 10% tween/90% PEG-400 or 40% PEG-400/25% of a aqueous HPBCD solution (20%)/35% water. All IV formulations were given as solutions and all PO doses were given as well-behaved suspensions or solutions. Animals were fasted prior to oral dosing in single-dose studies. Oral bioavailability was estimated using non-cross-over study designs (n=2 or 3). Plasma samples were assayed using protein precipitation with acetonitrile/methanol (90/10, v/v) followed by HPLC/MS/MS analysis employing positive-ion Turbo IonSpray ionization. Plasma concentration-time data were analyzed by non-compartmental methods and expressed as AUC (area under the curve) values. Holding dose constant, higher oral AUC values represent greater oral plasma exposure.
The tables above provide oral AUC values for example 1, 8, 12, 17, and 20, in which the compound was dosed in rats at 10 mpk via a method similar to that described above.

[2] = target: LRRK2 (G2019S mutation, GST-LRRK2 (amino acids 970-2527)) (Homo sapiens (Human), UniProt Q5S007, G2019S); test: LRRK2 Km ATP LanthaScreen Assay; format: biochemical; settings: mean IC50 of several test results
Chain of LRRK2 (G2019S mutation, GST-LRRK2 (amino acids 970-2527)) (Q5S007 970-2527 G2019S): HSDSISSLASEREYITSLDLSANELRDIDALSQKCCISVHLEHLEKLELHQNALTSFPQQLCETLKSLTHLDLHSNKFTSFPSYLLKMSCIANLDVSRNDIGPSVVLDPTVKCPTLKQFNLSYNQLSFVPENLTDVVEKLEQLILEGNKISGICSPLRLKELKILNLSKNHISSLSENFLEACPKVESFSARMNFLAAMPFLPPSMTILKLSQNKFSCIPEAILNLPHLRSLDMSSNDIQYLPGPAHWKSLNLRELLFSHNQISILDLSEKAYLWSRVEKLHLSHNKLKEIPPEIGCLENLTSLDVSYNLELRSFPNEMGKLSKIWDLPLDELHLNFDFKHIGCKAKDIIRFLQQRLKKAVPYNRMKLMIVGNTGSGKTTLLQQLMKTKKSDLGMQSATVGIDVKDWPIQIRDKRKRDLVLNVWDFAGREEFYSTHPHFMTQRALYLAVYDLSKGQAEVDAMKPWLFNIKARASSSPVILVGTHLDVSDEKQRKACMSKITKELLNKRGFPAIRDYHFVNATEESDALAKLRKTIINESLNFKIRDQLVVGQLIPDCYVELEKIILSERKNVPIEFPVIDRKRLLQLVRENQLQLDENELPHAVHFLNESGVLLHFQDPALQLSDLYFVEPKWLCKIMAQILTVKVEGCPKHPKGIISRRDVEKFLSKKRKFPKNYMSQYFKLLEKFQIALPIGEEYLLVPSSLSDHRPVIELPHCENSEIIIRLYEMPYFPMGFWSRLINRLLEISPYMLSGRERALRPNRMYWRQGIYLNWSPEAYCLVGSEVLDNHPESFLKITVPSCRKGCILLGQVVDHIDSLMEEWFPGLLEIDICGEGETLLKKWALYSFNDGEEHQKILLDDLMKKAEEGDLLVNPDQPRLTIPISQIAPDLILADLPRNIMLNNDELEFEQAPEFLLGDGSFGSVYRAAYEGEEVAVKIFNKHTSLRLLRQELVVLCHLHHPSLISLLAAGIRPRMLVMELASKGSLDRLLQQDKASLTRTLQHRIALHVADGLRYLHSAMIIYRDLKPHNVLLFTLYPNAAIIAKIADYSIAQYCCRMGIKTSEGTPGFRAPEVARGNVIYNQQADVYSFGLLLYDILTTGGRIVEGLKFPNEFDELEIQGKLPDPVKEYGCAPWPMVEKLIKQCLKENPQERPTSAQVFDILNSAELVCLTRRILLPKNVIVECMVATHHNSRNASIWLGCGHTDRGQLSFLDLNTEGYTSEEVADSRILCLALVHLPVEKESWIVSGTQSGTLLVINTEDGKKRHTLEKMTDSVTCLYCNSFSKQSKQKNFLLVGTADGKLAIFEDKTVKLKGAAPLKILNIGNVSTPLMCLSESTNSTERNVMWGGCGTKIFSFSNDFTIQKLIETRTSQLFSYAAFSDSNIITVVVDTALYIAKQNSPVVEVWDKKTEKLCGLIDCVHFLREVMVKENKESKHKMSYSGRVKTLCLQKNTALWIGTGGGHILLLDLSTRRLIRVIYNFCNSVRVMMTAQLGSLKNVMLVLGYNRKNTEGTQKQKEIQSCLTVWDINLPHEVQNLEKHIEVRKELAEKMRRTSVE
Excerpt: Unless otherwise noted, all LRRK2 IC50 data presented in tables refers to the LRRK2 Km ATP LanthaScreen™ Assay that is described in the Biological Assay section.
The data presented for the Km ATP LanthaScreen™ Assay represents mean IC50 values based on several test results and may have reasonable deviations depending on the specific conditions and reagents used. Reagents for the LRRK2 Km ATP LanthaScreen™ Assay were purchased from Life Technologies Corporation.
LRRK2 Km ATP LanthaScreen™ Assay
a) 400 nl of a 1:2.15 serial dilution of test compound (98 μM top assay concentration) is spotted via Labcyte Echo to certain wells in a 384 well black, untreated plate. Control wells contain 400 nl of either DMSO or 400 nl of a known inhibitor in DMSO.
c) A 30 minute room temperature incubation is followed by addition of 10 μl of 800 nM fluorescein labeled LRRKtide peptide substrate and 186 μM ATP solution in 1× assay buffer to all wells.
d) After a 60 minute room temperature incubation, 20 μl of TR-FRET Dilution Buffer (Invitrogen PV3756B) containing 4 nM Tb-labeled anti-phospho LRRKtide antibody and 20 mM EDTA is added to all wells.
e) Plates are incubated at room temperature for 1 hour and read on an Envision™ multi-mode plate reader with LanthaScreen™ settings. Results are analysed using Assay Data Analyzer.

SMILES	AUC [1] [µM·h]	Rat AUC 10 mpk PO [1] [µM·h]	IC50 [2] [nM]
Cn1cc(-c2ccc3cnn(-c4ccnc(N5CCOCC5)c4)c3c2)cn1 [Example 1, 4-(4-(6-(1-methyl-1H-pyrazol-4-yl)-1H-indazol-1-yl)pyridin-2-yl)morpholine]	2.1	2.1 ± 0.09	
Cn1cc(-c2ccc3cnn(-c4ccnc(N5CCN(S(C)(=O)=O)CC5)c4)c3c2)cn1 [Example 8, 6-(1-methyl-1H-pyrazol-4-yl)-1-(2-(4-(methylsulfonyl)piperazin-1-yl)pyridin-4-yl)-1H-indazole]	41	41 ± 26	45
Cn1cc(-c2ccc3cnn(-c4ccnc(N5CC[C@@H](F)C5)c4)c3c2)cn1 [Example 12, (R)-1-(2-(3-fluoropyrrolidin-1-yl)pyridin-4-yl)-6-(1-methyl-1H-pyrazol-4-yl)-1H-indazole]	0.82		89
COc1ccncc1-c1ccc2cnn(-c3ccnc(N4CCOCC4)c3)c2c1 [Example 17, 4-(4-(6-(4-methoxypyridin-3-yl)-1H-indazol-1-yl)pyridin-2-yl)morpholine]	10	10 ± 2.5	43
CN(C)C(=O)CN1CCN(c2cc(-n3ncc4ccc(-c5cnn(C)c5)cc43)ccn2)CC1 [Example 20, N,N-dimethyl-2-(4-(4-(6-(1-methyl-1H-pyrazol-4-yl)-1H-indazol-1-yl)pyridin-2-yl)piperazin-1-yl)acetamide]	1	1.0 ± 0.19	34
CS(=O)(=O)N1CCN(c2cc(-n3ncc4ccc(-c5cn[nH]c5)cc43)ncn2)CC1 [Example 66, 1-{6-[4-(methylsulfonyl)piperazin-1-yl]pyrimidin-4-yl}-6-(1H-pyrazol-4-yl)-1H-indazole]			68
c1cncc(-c2ccc3cnn(-c4cc(N5CCOCC5)ncn4)c3c2)c1 [Example 67, 1-(6-morpholin-4-ylpyrimidin-4-yl)-6-pyridin-3-yl-1H-indazole]			130
Cn1cc(-c2ccc3cnn(-c4cc(N5CCOCC5)ncn4)c3c2)cn1 [Example 68, 6-(1-methyl-1H-pyrazol-4-yl)-1-(6-morpholin-4-ylpyrimidin-4-yl)-1H-indazole]			79
c1cc(-c2ccc3cnn(-c4cc(N5CCOCC5)ncn4)c3c2)[nH]n1 [Example 69, 1-(6-morpholin-4-ylpyrimidin-4-yl)-6-(1H-pyrazol-5-yl)-1H-indazole]			10.5
c1nc(N2CCOCC2)cc(-n2ncc3ccc(-c4cn[nH]c4)cc32)n1 [Example 70, 1-(6-morpholin-4-ylpyrimidin-4-yl)-6-(1H-pyrazo-4-yl)-1H-indazole]			77
c1nc(N2CCOCC2)cc(-n2ncc3ccc(C4CC4)cc32)n1 [Example 71, 6-cyclopropyl-1-(6-morpholin-4-ylpyrimidin-4-yl)-1H-indazole]			231
